From patent US20260198495A1, “BINARY INSECTICIDE COMPOSITION AND USE THEREOF” (SHENYANG SINOCHEM AGROCHEMICALS R & D CO., LTD., priority 2022, published 2026) come the findings set out here.

Holding throughout (type): in vivo
Assay [1] concerns 2nd-instar larvae of Chilo suppressalis (Walker). Briefly: Joint toxicity of I-72 + carbaryl, rice stalk spraying, Example 23, Table 23. From the text: In addition, a blank control was set up.
The treated test materials were placed in an observation room, and the temperature, humidity and illumination of the observation room could be adjusted as needed.

Assay [2] has the same test system. Briefly: Joint toxicity of I-72 + abamectin, rice stalk spraying, Example 7, Table 7. The settings on record: Chilo suppressalis, resistant 2nd-instar larvae, 72 h, A = compound I-72, B = abamectin, read-out: LC50. How it is done: Test target: 2nd-instar larvae of Chilo suppressalis (Walker). The insect source was collected from Nanchang, Jiangxi Province, and it is the 11th generation continuously cultured indoors, with a relatively high resistance level to amide pesticides such as chlorantraniliprole.
Test conditions: temperature: 25-27° C., humidity: RH 60%, and illumination: L:D=14:10
Preparation method: the test pesticides were accurately weighed respectively with an electronic analytical balance. After the two technical materials were respectively added into an appropriate amount of solvent and completely dissolved, the stock solution of the required concentration was prepared with water containing 0.1% Tween 80. The stock solutions of the two active ingredients were mixed in a certain ratio to prepare a mixed solution, which was then diluted respectively into a series of pesticide solutions with a certain concentration gradient according to the experimental design dosage.
Experimental method: the spraying method was adopted. […] The corrected mortality rate was calculated using the Abbott's formula, and the DPS data processing software was used for statistical analysis to calculate the toxicities (LC50 values) of the single test pesticides and the mixtures under the test ratios. […]

Assay [3] concerns 2nd-instar larvae of Plutella xylostella. Briefly: Joint toxicity of I-72 + beta-cypermethrin, Example 43, Table 43. Particulars: in Brassica oleracea, foliar, 72 h. How it is done: Preparation of the pesticide solution: according to different test requirements, the test samples were accurately weighed respectively with an electronic analytical balance. The technical pesticides were dissolved in acetone, and then diluted with 0.1% Tween 80 water into a series of pesticide solutions with a certain concentration gradient according to the experimental design dosage.
Experimental method: first, cabbage leaves were selected and dipped in the prepared pesticide solution for 10 s in the order from low dosage to high dosage according to the experimental design. After natural air-drying in the shade, they were placed in a 9-cm-diameter Petri dish with filter paper, and uniform and healthy test insects were introduced, with 10 insects for each treatment and 3 replicates for each treatment. In addition, a blank control was set up.
The treated test materials were placed in an observation room, and the temperature, humidity and illumination of the observation room could be adjusted as needed. The number of dead and live insects was investigated 72 hours later.

Regarding `CN(C(=O)c1ccc2c(c1)OC(F)(F)O2)c1cccc(C(=O)Nc2c(Br)cc(C(F)(C(F)(F)F)C(F)(F)F)cc2OC(F)F)c1F` [Compound I-72], the LC50 is 0.881 µg/mL in assay [1], 0.811 µg/mL in assay [2] and 0.0897 µg/mL in assay [3].

Broadly, the LC50 is the concentration that kills 50% of the test population.
